# Measured values: patent US11168087B2, “Substituted imidazo[1,2-b]pyridazines, substituted imidazo[1,5-b]pyridazines, related compounds, and their use in the treatment of medical disorders” (BIAL—R&D Investments, S.A., priority 2016, dated 2021)
# Molecular target: T1, glucocerebrosidase (Gcase) (Homo sapiens, UniProt P04062)
# T1 construct: micellar solution containing 10 nM GCase and 100 nM saposin C
# T1 sequence (P04062 40-536): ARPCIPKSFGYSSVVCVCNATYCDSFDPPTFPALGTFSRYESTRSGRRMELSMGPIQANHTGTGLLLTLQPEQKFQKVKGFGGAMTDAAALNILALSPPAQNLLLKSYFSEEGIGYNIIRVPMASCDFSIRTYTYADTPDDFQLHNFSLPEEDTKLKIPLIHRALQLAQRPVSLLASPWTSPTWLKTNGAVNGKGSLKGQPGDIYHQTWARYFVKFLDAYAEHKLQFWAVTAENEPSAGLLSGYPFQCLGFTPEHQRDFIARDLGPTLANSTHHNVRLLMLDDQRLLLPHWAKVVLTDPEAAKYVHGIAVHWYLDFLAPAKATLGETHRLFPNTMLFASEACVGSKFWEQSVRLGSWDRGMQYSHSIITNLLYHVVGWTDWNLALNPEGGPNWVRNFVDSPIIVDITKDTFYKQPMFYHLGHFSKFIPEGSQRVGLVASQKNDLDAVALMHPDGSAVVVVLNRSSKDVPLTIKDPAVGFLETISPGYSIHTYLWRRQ
# Test: Glucocerebrosidase (Gcase) activation assay, 4-methylumbelliferyl-beta-D-glucopyranoside substrate, with saposin C
# Type: biochemical
# Conditions: 0.25 h; for activation at 0.1 µM: read-out: Percent Gcase Activation 0.1 μM Test Compound; for activation at 1 µM: read-out: Percent Gcase Activation 1 μM Test Compound
# Experimental: The ability of exemplary compounds to activate glucocerebrosidase (Gcase) was measured.
# A 484 μL aliquot of a 1.0 mg/mL solution of phosphatidylserine (PS) (Sigma P7769) in chloroform was evaporated under a stream of nitrogen for 1 hour. The lipid film was dissolved over 4 minutes of vigorous vortexing in 40 mL of 176 mM K2HPO4/50 mM citric acid (pH 4.7) containing 7.5 μL of triton X-100, resulting in a mixed micellar preparation with a composition of 0.32 mM triton and 0.37 mol % PS. 4-Methylumbelliferyl-beta-D-glucopyranoside (ACROS-337025000) was dissolved in the micellar solution to a final concentration of 2 mM for use as the reaction substrate.
# Test compounds were diluted to the desired concentrations with dimethylsulfoxide (DMSO) from 10 mM stocks, and 0.41 μL of the DMSO compound mixture was added to 100 μL of micellar solution containing 10 nM GCase and 100 nM saposin C (Enzo ALX-201-262-C050). Pre-incubation was allowed to occur for 30 minutes at room temperature, after which the reaction was initiated by combining 25 μL of substrate solution with 25 μL of compound/GCase/saposin mixture. The reaction proceeded for 15 minutes at room temperature and was stopped by adding 150 μL of 1M glycine, pH 12.5. The endpoint of the reaction was monitored by measuring fluorescence intensity (excitation: 365 nm; emission: 440 nm) on a SpectraMax i3 instrument (Molecular Devices). Test compounds were screened at 1.0 and 0.1 μM final concentration, and subsequent 8-point dose response curves were obtained using 3-fold dilutions from a maximum final concentration of 5 μM.
# The symbol “+” indicates less than 5% Gcase activation; the symbol “++” indicates Gcase activation in the range of 5% up to 20%; and the symbol “+++” indicates Gcase activation greater than 20%.
SMILES,activation at 0.1 µM [%],activation at 1 µM [%]
CCCCCO[C@H]1CC[C@H](NC(=O)c2cnc3ccc(Cl)nn23)CC1,< 5,5 to 20
Cc1cc(C)c2cnc(C(=O)NC(C)(C)C3CC3)n2n1,< 5,> 20
C#Cc1ccc(NC(=O)c2ncc3c(C)cc(C)nn23)cc1,< 5,> 20
Cc1cc2ncc(C(=O)Nc3ccc4c(c3)CCC4)n2nc1Cl,< 5,5 to 20
Cc1cc(-c2ccc(F)cc2)nn2c(C(=O)N[C@@H](C)C3CC3)nnc12,< 5,< 5
"Cc1cc(-c2ccc(F)cc2C#N)nn2c(C(=O)N[C@@H](C)C3CC3)ncc12 [(S)-2-(2-Cyano-4-fluorophenyl)-N-(1-cyclopropylethyl)-4-methylimidazo[1,5-b]pyridazine-7-carboxamide]",5 to 20,> 20
"CCCCCO[C@H]1CC[C@H](NC(=O)c2nsc3c(C)cc(C)nc23)CC1 [5,7-Dimethyl-N-((1R,4R)-4-(pentyloxy)cyclohexyl)isothiazolo[4,5-b]pyridine-3-carboxamide]",> 20,> 20
CCCCCO[C@H]1CC[C@H](NC(=O)c2cnc3c(C)cc(C)nn23)CC1,5 to 20,> 20
O=C(NC1CCCc2ccccc21)c1cnc2ccc(Cl)nn12 (stereo not shown),< 5,5 to 20
Cc1cc(-c2cccc(F)c2)nn2c(C(=O)NC(C)(C)C3CC3)ncc12,> 20,> 20
"Cc1cc(C)c2onc(C(=O)NC(C3CC3)C(F)(F)F)c2n1 (stereo not shown) [N-(1-Cyclopropyl-2,2,2-trifluoroethyl)-5,7-dimethylisoxazolo[4,5-b]pyridine-3-carboxamide]",< 5,> 20
Cc1cc(-c2ccc(F)cc2)nn2c(C(=O)NC(C)(C)C3CC3)ncc12,> 20,> 20
"CCC(NC(=O)c1noc2c(C)cc(C)nc12)c1ccccc1 (stereo not shown) [5,7-Dimethyl-N-(1-phenylpropyl)isoxazolo[4,5-b]pyridine-3-carboxamide]",5 to 20,> 20
Cc1cc2ncc(C(=O)NC3CCCc4ccccc43)n2nc1Cl (stereo not shown),< 5,5 to 20
CCC(NC(=O)c1cnc2ccc(Cl)nn12)c1ccccc1 (stereo not shown),< 5,< 5
CCCCCCOC1CCC(NC(=O)c2cnc3cc(C)c(Cl)nn23)CC1 (stereo not shown),< 5,< 5
Cc1cc(C)c2scc(C(=O)NC(C)(C)C3CC3)c2n1,> 20,> 20

# Further lines, results first:
activation at 0.1 µM [%],activation at 1 µM [%],SMILES
5 to 20,> 20,Cc1cc(-c2ccc(F)cc2C#N)nn2c(C(=O)N[C@@H](C)C(F)(F)F)cnc12
5 to 20,> 20,"Cc1cc(-c2cncc(Cl)c2)nn2c(C(=O)N[C@@H](C3CC3)C(F)(F)F)ncc12 [(S)-2-(5-Chloropyridin-3-yl)-N-(1-cyclopropyl-2,2,2-trifluoroethyl)-4-methylimidazo[1,5-b]pyridazine-7-carboxamide]"
5 to 20,> 20,"Cc1cc(-c2ccc3ncn(C)c3c2)nn2c(C(=O)N[C@@H](C3CC3)C(F)(F)F)cnc12 [(S)—N-(1-Cyclopropyl-2,2,2-trifluoroethyl)-8-methyl-6-(1-methyl-1H-benzo[d]imidazol-6-yl)imidazo[1,2-b]pyridazine-3-carboxamide]"
5 to 20,> 20,Cc1cc(-c2ccc(F)cc2)nn2c(C(=O)NC(C)(C)C3CC3)cnc12
> 20,> 20,"Cc1cc(-c2cccc(F)c2)nn2c(C(=O)N[C@H](C3CC3)C(F)(F)F)ncc12 [(R)—N-(1-Cyclopropyl-2,2,2-trifluoroethyl)-2-(3-fluorophenyl)-4-methylimidazo[1,5-b]pyridazine-7-carboxamide]"
> 20,> 20,Cc1cc(-c2ccc(F)o2)nn2c(C(=O)NC(C3CC3)C(F)(F)F)cnc12 (stereo not shown)
5 to 20,> 20,Cc1cc(-c2ccc(F)cc2)nn2c(C(=O)N[C@@H](C)C3CC3)ncc12
> 20,> 20,Cc1cc(-c2occc2C#N)nn2c(C(=O)NC(C3CC3)C(F)(F)F)cnc12 (stereo not shown)
5 to 20,> 20,Cc1cc(-c2cccnc2F)nn2c(C(=O)NC(C3CC3)C(F)(F)F)cnc12 (stereo not shown)
5 to 20,> 20,Cc1cc(-c2ccc(C(N)=O)o2)nn2c(C(=O)N[C@@H](C3CC3)C(F)(F)F)ncc12
> 20,> 20,Cc1cc(N2CCCC(F)(F)C2)nn2c(C(=O)N[C@@H](C3CC3)C(F)(F)F)cnc12
> 20,> 20,Cc1cc(-c2cccc(F)c2)nn2c(C(=O)NC(C3CC3)C(F)(F)F)cnc12 (stereo not shown)
5 to 20,> 20,"Cc1cc(-c2cccc(F)c2C#N)nn2c(C(=O)N[C@@H](C)C(F)(F)F)cnc12 [(S)-6-(2-Cyano-3-fluorophenyl)-8-methyl-N-(1,1,1-trifluoropropan-2-yl)imidazo[1,2-b]pyridazine-3-carboxamide]"
5 to 20,> 20,Cc1cc(-c2ccc3ocnc3c2)nn2c(C(=O)N[C@H](C)C(F)(F)F)cnc12
5 to 20,> 20,"Cc1cc(-c2ccc3ncn(C)c3c2)nn2c(C(=O)N[C@H](C3CC3)C(F)(F)F)cnc12 [(R)—N-(1-Cyclopropyl-2,2,2-trifluoroethyl)-8-methyl-6-(1-methyl-1H-benzo[d]imidazol-6-yl)imidazo[1,2-b]pyridazine-3-carboxamide]"
> 20,> 20,Cc1cc(-c2ccc(C#N)o2)nn2c(C(=O)N[C@@H](C3CC3)C(F)(F)F)ncc12
> 20,> 20,COc1cccc(-c2cc(C)c3ncc(C(=O)NC(C4CC4)C(F)(F)F)n3n2)c1 (stereo not shown)
> 20,> 20,"Cc1cc(C#N)c(-c2cc(C)c3ncc(C(=O)N[C@@H](C)C4CC4)n3n2)o1 [(S)-6-(3-Cyano-5-methylfuran-2-yl)-N-(1-cyclopropylethyl)-8-methylimidazo[1,2-b]pyridazine-3-carboxamide]"
5 to 20,> 20,Cc1cc(-c2cccc(Cl)n2)nn2c(C(=O)NC(C)C(F)(F)F)cnc12 (stereo not shown)
< 5,> 20,Cc1cc(-c2cccnc2)nn2c(C(=O)NC(C3CC3)C(F)(F)F)cnc12 (stereo not shown)
5 to 20,> 20,Cc1cc(-c2ccon2)nn2c(C(=O)NC(C3CC3)C(F)(F)F)cnc12 (stereo not shown)
5 to 20,> 20,"Cc1cc(N2CC(C(C)C)OC2=O)nn2c(C(=O)N[C@H](C3CC3)C(F)(F)F)cnc12 (stereo partly drawn) [N—((R)-1-Cyclopropyl-2,2,2-trifluoroethyl)-6-(5-isopropyl-2-oxooxazolidin-3-yl)-8-methylimidazo[1,2-b]pyridazine-3-carboxamide]"
> 20,> 20,Cc1cc(N2CCC(F)(F)C2)nn2c(C(=O)NC(C3CC3)C(F)(F)F)cnc12 (stereo not shown)
5 to 20,> 20,Cc1cc(-c2ccccc2C#N)nn2c(C(=O)NC(C3CC3)C(F)(F)F)cnc12 (stereo not shown)
